Laboratory results published in article PMC10649247, “Rapid Colloidal Gold Immunoassay for Pharmacokinetic Evaluation of Vancomycin in the Cerebrospinal Fluid and Plasma of Beagle Dogs” (Sensors (Basel, Switzerland), 2023).
Where a name gives a salt, the structure may show the parent alone.

Columns and labels:
[1] = test system: VAN antibodies (monoclonal antibodies derived from mouse ascites); test: Colloidal gold competitive immunoassay test strip (calibration curve and cross-reactivity); format: binding; settings: for CR (%) = [IC50 of VAN/IC50 of the tested compound] × 100%: cross-reactivity of the colloidal gold test strip; for IC50 (ng/mL), cross-reactivity test: compounds at 0, 0.1, 1, 10, 100, 1000 and 10,000 ng/mL
Method: Colloidal gold nanoparticles, integral for inducing a visible color change at the test line of the assay strips, were synthesized by boiling 100 mL of a 0.01% HAuCl4 aqueous solution, followed by the addition of 1% sodium citrate aqueous solution [46, 47, 48]. […] Subsequently, VAN antibodies were conjugated to these gold nanoparticles. The VAN antibodies used were monoclonal antibodies derived from mouse ascites with a molecular weight of 150 kD. They were purchased from Shenzhen KeJie Industrial Development Co., Ltd. (Shenzhen, China). The efficacy of this conjugation relied on a trifecta of forces: ionic attractions between the negatively charged gold particles and the positively charged proteins, hydrophobic interactions, and sulfur bonds, particularly from thiol groups that linked two regions of the Fc segment of the antibody to the gold surface.
A sequence of critical steps must be followed for fabricating colloidal gold immunochromatographic test strips. Initially, a substrate, typically comprising paper or a film, was precoated with antibodies specifically tailored for detecting the target molecule. Subsequently, colloidal gold nanoparticles were synthesized by reducing gold salts and coupled with antibodies. This coupling was facilitated by the combination of ionic, hydrophobic, and sulfur bond interactions. The resultant antibody-labeled colloidal gold solution was then applied to the designated test line area on the substrate. Then, a control line was established to validate the operational integrity of the strip. Following these applications, the strip underwent a drying process, was trimmed to manageable dimensions, and was hermetically sealed in protective packaging to mitigate the risk of environmental contamination.
The intensity of the color on the test line indicated the signal value. We quantified this signal using a smartphone camera in combination with the ImageJ software (Fiji ImageJ for Mac, 2.3.0 version). […] We used ImageJ to extract the gray values from lines drawn perpendicular to both the control and test lines. […] Therefore, the effective signal, represented as B, is determined by the absolute difference in gray value between the test line and its adjacent area.
The test line is coated with a competitive VAN–BSA antigen, and the control line is coated with […]. Upon application of the sample to the sample pad, the sample flows through the colloidal gold pad to interact with the gold-labeled antibodies. It then progresses through the test and control lines before being absorbed into the absorbent paper. The appearance of a visible line in the test area signifies a negative result for VAN (Figure 1(b1)). […] Regardless of the presence or absence of VAN, a red control line should always appear when the test is operating correctly. Otherwise, the results are invalid. Figure 1c depicts the four scenarios that may arise during testing.
Under optimized assay conditions, we used in-house-prepared VAN standard samples to validate the performance metrics of the test strips. The concentrations of the standard samples were 0, 1, 2, 4, 8, 16, 32, 64, 128, 256, 512, and 1024 ng/mL. For the analysis, we applied 4–5 drops of each sample onto the test strips and allowed them to air-dry for 10 min. We observed an inverse correlation between the VAN concentration and the test line signal intensity. We then proceeded to construct a calibration curve to elucidate the correlation between the optical signals (designated as B/B0) and the respective VAN concentrations. In this context, B represents the optical signals for each standard concentration of VAN, while B0 signifies the optical signal at a zero-concentration baseline. […]

[2] = Pharmacokinetic study of VAN in plasma of beagle dogs (LC-MS); format: in vivo; settings: single intravenous dose 12 mg/kg, average of three dogs
Method: (§1) Animal Dosing and Sample Collection: The choice of using beagle dogs for the pharmacokinetic studies of VAN in CSF and plasma is driven by their physiological similarities to humans, which make them a suitable model for predicting human pharmacokinetics. Three male beagle dogs, each weighing approximately 11 kg and aged 10 months, were utilized for pharmacokinetic studies. Both the acquisition of the beagle dogs and the sample collection were conducted by Beijing Sinogenetic Biotechnology Co., Ltd. (Beijing, China). The animal protocols employed for this research were reviewed and approved by Beijing Sinogenetic Biotechnology Co., Ltd. (XNY-20230524001). The beagle dogs were anesthetized and subsequently administered a single intravenous dose of a pre-prepared 50 mg/mL VAN hydrochloride solution at a dosage level of 12 mg/kg, with the injection time lasting approximately 2–3 s. CSF and plasma samples were collected at predetermined time points: predose (0 min) and postdose at intervals of 5 min, 10 min, 30 min, 1 h, 2 h, 4 h, 8 h, and 24 h. […]
(§2) An HPLC–MS method was established to precisely quantify VAN levels in CSF and plasma samples collected from beagle dogs. […] The methodological rigor ensured a high degree of specificity and sensitivity in VAN quantification, effectively fulfilling the objectives of this study.

[3] = Pharmacokinetic study of VAN in CSF of beagle dogs (LC-MS); format: in vivo; settings: single intravenous dose 12 mg/kg, average of three dogs
Method: as §1, §2

Row | Compound | CR (%) = [IC50 of VAN/IC50 of the tested compound] × 100% [1] | IC50 (ng/mL), cross-reactivity test ([1]; test strip) | peak concentration of VAN in plasma [2] | concentration of VAN in plasma within ~4 h ([2]; ~4 h post dose) | time at which VAN concentration in CSF reaches its maximum [3] | LOD, concentration of VAN giving a 10% inhibition of the maximum absorbance ([1]; test strip calibration curve, read after 10 min, n = 3) | inhibitory concentration 50% (IC50) from the calibration curve (B/B0 against VAN concentration) ([1]; test strip, standard samples 0-1024 ng/mL, read after 10 min, smartphone/ImageJ gray value, n = 3)
1 | NCC[C@H](O)C(=O)N[C@@H]1C[C@H](N)[C@@H](O[C@H]2O[C@H](CN)[C@@H](O)[C@H](O)[C@H]2O)[C@H](O)[C@H]1O[C@H]1O[C@H](CO)[C@@H](O)[C@H](N)[C@H]1O [Amikacin, amikacin] | <0.5% | >10^4 ng/mL |  |  |  |  | 
2 | CN[C@H]1C(=O)N[C@@H]2Cc3ccc(cc3)Oc3cc4cc(c3O[C@@H]3O[C@H](C(=O)O)[C@@H](O)[C@H](O)[C@H]3NC(=O)CCCCCCCCC(C)C)Oc3ccc(cc3Cl)[C@@H](O)[C@@H]3NC(=O)[C@H](NC(=O)[C@@H]4NC(=O)[C@@H](NC2=O)c2cc(cc(O)c2Cl)Oc2cc1ccc2O)c1ccc(O)c(c1)-c1c(O[C@H]2O[C@H](CO)[C@@H](O)[C@H](O)[C@@H]2O)cc(O)cc1[C@@H](C(=O)NCCCN(C)C)NC3=O [Dalbavancin, dalbavancin] | <0.5% | >10^4 ng/mL |  |  |  |  | 
3 | C[C@@H](O)[C@H]1C(=O)N2C(C(=O)O)=C(S[C@@H]3CN[C@H](C(=O)N(C)C)C3)[C@H](C)[C@H]12 [Meropenem, meropenem] | <0.5% | >10^4 ng/mL |  |  |  |  | 
4 | CN[C@H](CC(C)C)C(=O)N[C@H]1C(=O)N[C@@H](CC(N)=O)C(=O)N[C@H]2C(=O)N[C@H]3C(=O)N[C@H](C(=O)N[C@H](C(=O)O)c4cc(O)cc(O)c4-c4cc3ccc4O)[C@H](O[C@H]3C[C@](C)(N)[C@@H](O)[C@H](C)O3)c3ccc(c(Cl)c3)Oc3cc2cc(c3O[C@@H]2O[C@H](CO)[C@@H](O)[C@H](O)[C@H]2O[C@H]2C[C@](C)(NCc3ccc(-c4ccc(Cl)cc4)cc3)[C@@H](O)[C@H](C)O2)Oc2ccc(cc2Cl)[C@H]1O [Oritavancin, oritavancin] | <0.5% | >10^4 ng/mL |  |  |  |  | 
5 | CCCCCCCCCCNCCN[C@@]1(C)C[C@H](O[C@H]2[C@H](Oc3c4cc5cc3Oc3ccc(cc3Cl)[C@@H](O)[C@@H](NC(=O)[C@@H](CC(C)C)NC)C(=O)N[C@@H](CC(N)=O)C(=O)N[C@H]5C(=O)N[C@H]3C(=O)N[C@H](C(=O)N[C@H](C(=O)O)c5cc(O)c(CNCP(=O)(O)O)c(O)c5-c5cc3ccc5O)[C@H](O)c3ccc(c(Cl)c3)O4)O[C@H](CO)[C@@H](O)[C@@H]2O)O[C@@H](C)[C@H]1O [Telavancin, telavancin] | <0.5% | >10^4 ng/mL |  |  |  |  | 
6 | CN[C@H](CC(C)C)C(=O)N[C@H]1C(=O)N[C@@H](CC(N)=O)C(=O)N[C@H]2C(=O)N[C@H]3C(=O)N[C@H](C(=O)N[C@H](C(=O)O)c4cc(O)cc(O)c4-c4cc3ccc4O)[C@H](O)c3ccc(c(Cl)c3)Oc3cc2cc(c3O[C@@H]2O[C@H](CO)[C@@H](O)[C@H](O)[C@H]2O[C@H]2C[C@](C)(N)[C@H](O)[C@H](C)O2)Oc2ccc(cc2Cl)[C@H]1O [VAN, Vancomycin hydrochloride] | 100% |  | 40 µg/mL | below 1 µg/mL | ~ 2 h | 10.3 ng/mL | 0.0445 µg/mL
7 | teicoplanin | <0.5% | >10^4 ng/mL |  |  |  |  | 
